Legend:
[1] = DRUGMATRIX: Potassium Channel [KATP] radioligand binding (ligand: [3H] Glyburide); type: cell membranes, Membrane; details: hit-t15; Not Active = under 50% inhibition at 10 µM
[2] = DRUGMATRIX: Sodium/nucleoside co-transporter radioligand binding (ligand: nitrobenzylthioinosine); type: cell membranes, Cavia porcellus, Dunkin-Hartley, Cerebral cortex, Membrane; details: Not Active = under 50% inhibition at 10 µM
Histamine H2 receptor = Histamine H2 receptor (Homo sapiens, UniProt P25021); type: cell membranes, CHO-K1, Membrane; details: cho-k1; note: in other assays of this panel Not Active means under 50% inhibition at 10 µM
Cytochrome P450 1A2 = biological target: T1, Cytochrome P450 1A2 (Homo sapiens, UniProt P05177); details: bti-tn-5b1-4; note: in other assays of this panel Not Active means under 50% inhibition at 10 µM
T1 sequence (P05177 whole entry): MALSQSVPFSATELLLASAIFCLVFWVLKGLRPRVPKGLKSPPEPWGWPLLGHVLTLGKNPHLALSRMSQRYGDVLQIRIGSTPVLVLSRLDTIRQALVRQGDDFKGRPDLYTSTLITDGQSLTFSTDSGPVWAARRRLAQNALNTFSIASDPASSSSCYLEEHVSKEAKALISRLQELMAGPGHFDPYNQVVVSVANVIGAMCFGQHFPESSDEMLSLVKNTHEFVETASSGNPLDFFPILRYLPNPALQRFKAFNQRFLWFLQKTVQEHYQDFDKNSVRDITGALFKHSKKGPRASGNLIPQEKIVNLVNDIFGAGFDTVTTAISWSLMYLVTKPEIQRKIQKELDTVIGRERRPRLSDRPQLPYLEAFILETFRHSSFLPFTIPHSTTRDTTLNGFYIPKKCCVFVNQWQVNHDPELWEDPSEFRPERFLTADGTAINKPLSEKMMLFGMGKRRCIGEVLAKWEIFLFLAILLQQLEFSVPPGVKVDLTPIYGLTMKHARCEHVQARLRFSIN

Estrogen receptor = biological target: T2, Estrogen receptor (Homo sapiens, UniProt P03372); details: sf9; note: in other assays of this panel Not Active means under 50% inhibition at 10 µM
T2 sequence (P03372 whole entry): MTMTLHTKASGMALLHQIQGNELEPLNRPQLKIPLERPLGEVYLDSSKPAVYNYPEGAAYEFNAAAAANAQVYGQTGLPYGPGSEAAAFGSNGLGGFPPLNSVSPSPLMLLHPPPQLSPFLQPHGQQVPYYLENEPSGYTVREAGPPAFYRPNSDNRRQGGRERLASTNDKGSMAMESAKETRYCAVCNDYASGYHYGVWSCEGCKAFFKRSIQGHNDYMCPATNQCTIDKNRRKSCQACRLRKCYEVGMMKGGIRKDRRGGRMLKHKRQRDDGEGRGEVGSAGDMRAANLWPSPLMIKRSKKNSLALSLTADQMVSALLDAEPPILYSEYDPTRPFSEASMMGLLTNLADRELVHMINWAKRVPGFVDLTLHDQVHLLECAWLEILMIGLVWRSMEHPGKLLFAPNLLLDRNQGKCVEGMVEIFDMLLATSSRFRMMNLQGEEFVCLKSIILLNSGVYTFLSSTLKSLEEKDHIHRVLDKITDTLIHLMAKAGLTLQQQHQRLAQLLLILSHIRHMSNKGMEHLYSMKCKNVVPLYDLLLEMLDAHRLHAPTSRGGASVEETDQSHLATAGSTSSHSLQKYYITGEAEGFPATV

[3] = biological target: T3, Vasoactive intestinal polypeptide receptor 1 (Homo sapiens, UniProt P32241); type: cell membranes, Membrane; details: ht-29; note: in other assays of this panel Not Active means under 50% inhibition at 10 µM
T3 sequence (P32241 whole entry): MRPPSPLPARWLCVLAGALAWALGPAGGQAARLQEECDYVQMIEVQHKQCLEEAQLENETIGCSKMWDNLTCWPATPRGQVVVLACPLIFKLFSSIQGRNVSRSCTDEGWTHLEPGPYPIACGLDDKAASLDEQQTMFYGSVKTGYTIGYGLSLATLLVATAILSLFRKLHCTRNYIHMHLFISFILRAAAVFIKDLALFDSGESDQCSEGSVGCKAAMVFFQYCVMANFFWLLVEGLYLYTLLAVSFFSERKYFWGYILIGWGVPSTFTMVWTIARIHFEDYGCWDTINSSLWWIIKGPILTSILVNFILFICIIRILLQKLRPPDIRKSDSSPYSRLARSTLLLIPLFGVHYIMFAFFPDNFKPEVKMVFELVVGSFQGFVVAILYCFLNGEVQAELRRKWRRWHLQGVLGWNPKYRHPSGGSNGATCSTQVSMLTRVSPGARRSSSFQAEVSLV

[4] = biological target: Tyrosine-protein kinase Fyn (Homo sapiens, UniProt P06241); test: biochemical; type: cell-based, Insect cells; details: insect cells
Tyrosine-protein kinase Fyn, sequence (P06241 whole entry): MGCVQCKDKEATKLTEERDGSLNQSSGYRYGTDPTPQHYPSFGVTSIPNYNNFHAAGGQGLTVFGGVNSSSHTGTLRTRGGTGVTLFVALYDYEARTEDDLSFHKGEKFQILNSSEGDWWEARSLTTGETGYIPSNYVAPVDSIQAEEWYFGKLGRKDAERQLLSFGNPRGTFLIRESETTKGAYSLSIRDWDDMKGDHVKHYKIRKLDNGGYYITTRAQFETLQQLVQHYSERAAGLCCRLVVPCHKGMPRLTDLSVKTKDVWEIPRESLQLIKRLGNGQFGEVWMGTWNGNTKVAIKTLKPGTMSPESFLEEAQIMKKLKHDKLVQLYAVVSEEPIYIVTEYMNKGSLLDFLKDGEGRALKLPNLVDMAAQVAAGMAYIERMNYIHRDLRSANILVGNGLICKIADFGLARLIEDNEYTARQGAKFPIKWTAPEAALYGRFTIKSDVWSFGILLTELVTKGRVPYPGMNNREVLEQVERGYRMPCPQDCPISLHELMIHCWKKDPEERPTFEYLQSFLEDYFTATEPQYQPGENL

Histamine H2 receptor, sequence (P25021 whole entry): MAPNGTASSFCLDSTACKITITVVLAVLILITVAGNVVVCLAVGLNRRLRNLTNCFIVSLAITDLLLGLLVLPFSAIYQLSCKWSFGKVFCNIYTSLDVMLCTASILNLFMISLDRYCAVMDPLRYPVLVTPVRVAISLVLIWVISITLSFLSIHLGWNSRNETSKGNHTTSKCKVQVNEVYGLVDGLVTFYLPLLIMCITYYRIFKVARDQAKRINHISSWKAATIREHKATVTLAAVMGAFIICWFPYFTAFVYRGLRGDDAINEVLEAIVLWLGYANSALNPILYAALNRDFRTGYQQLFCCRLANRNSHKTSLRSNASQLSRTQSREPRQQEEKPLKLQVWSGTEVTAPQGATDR

NC(=O)NC(=O)Cc1ccccc1 [PHENACEMIDE]
Not Active: IC50 [1] | Ki [1] | IC50 [2] | Ki [2] | IC50 (Histamine H2 receptor) | IC50 (Cytochrome P450 1A2) | Ki (Cytochrome P450 1A2) | IC50 (Estrogen receptor) | IC50 [3] | IC50 [4]

OC[C@H]1O[C@@H]2O[C@H]3[C@H](O)[C@@H](O)[C@@H](O[C@H]4[C@H](O)[C@@H](O)[C@@H](O[C@H]5[C@H](O)[C@@H](O)[C@@H](O[C@H]6[C@H](O)[C@@H](O)[C@@H](O[C@H]7[C@H](O)[C@@H](O)[C@@H](O[C@H]1[C@H](O)[C@H]2O)O[C@@H]7CO)O[C@@H]6CO)O[C@@H]5CO)O[C@@H]4CO)O[C@@H]3CO [ALFADEX]
Not Active: IC50 [1] | Ki [1] | IC50 [2] | Ki [2] | IC50 (Histamine H2 receptor) | IC50 (Cytochrome P450 1A2) | Ki (Cytochrome P450 1A2) | IC50 (Estrogen receptor) | IC50 [3] | IC50 [4]

ClC1=C(Cl)[C@]2(Cl)[C@@H]3[C@@H]4C[C@@H]([C@H]5O[C@@H]45)[C@@H]3[C@@]1(Cl)C2(Cl)Cl [DIELDRIN]
Not Active: IC50 [1] | Ki [1] | IC50 [2] | Ki [2] | IC50 (Histamine H2 receptor) | IC50 (Cytochrome P450 1A2) | Ki (Cytochrome P450 1A2) | IC50 (Estrogen receptor) | IC50 [3] | IC50 [4]

CCC1(c2ccccc2)C(=O)NC(=O)NC1=O [PHENOBARBITAL]
Not Active: IC50 [1] | Ki [1] | IC50 [2] | Ki [2] | IC50 (Histamine H2 receptor) | IC50 (Cytochrome P450 1A2) | Ki (Cytochrome P450 1A2) | IC50 (Estrogen receptor) | IC50 [3] | IC50 [4]
